pIC50: −log10 of the molar value.

For the test, the target named is T1, Leucyl-cystinyl aminopeptidase (Rattus norvegicus, UniProt P97629).
T1 sequence (P97629 whole entry): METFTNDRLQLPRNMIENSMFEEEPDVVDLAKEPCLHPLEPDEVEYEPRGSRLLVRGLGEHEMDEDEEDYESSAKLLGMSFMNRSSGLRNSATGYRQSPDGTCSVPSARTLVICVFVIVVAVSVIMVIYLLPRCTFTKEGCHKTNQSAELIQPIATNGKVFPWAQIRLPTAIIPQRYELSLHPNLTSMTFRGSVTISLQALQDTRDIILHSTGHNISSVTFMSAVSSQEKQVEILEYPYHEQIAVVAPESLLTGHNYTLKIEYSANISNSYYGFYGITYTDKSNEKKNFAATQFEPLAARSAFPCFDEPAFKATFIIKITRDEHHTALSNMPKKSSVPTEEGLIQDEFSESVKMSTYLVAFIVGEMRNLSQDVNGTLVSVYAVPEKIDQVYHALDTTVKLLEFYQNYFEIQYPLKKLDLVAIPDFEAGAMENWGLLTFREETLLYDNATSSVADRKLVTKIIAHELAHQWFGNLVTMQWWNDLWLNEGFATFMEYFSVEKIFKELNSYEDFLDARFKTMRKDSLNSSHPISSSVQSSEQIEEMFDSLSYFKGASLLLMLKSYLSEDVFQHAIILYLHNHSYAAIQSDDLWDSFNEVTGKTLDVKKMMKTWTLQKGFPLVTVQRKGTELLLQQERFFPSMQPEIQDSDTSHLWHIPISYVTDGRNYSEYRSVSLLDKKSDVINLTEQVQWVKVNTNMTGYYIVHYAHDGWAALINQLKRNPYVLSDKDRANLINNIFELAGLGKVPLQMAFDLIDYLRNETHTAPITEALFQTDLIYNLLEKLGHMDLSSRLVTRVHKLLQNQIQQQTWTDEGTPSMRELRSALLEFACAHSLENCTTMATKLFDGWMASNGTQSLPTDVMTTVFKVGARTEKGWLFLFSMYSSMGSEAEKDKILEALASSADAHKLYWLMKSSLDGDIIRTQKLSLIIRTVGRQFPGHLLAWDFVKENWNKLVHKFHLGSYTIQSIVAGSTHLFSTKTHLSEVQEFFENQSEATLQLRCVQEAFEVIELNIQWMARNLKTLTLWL
In words: Inhibition Assay: The inventors have assumed that inhibition of nocturnal activity of placental leucine aminopeptidase (P-LAP), i.e. aminopeptidase that cleaves AVP, would maintain and/or increase an endogenous AVP level to enhance the antidiuretic effect, which would contribute to a decreased number of nocturnal voids, and have extensively studied compounds which inhibit P-LAP.
As to `Cc1c(CCCC2CC2)ccnc1C[C@](O)(C(=O)O)[C@@H](N)CC(C)C`, the negative logarithm of the IC50 (pIC50) was 6.43.
Next, `CCCC1CC1c1ccnc(C[C@](O)(C(=O)O)[C@@H](N)CC(C)C)c1` (stereo partly drawn): 7.72; `CSC[C@H](N)[C@](O)(Cc1cc(CCCC2CC2)c(C)cn1)C(=O)O`: 8.77.
Then `Cc1cnc(C[C@](O)(C(=O)O)[C@@H](N)CCC2CC2)cc1CCCC1CC1`, with 9.24.
Next, `CC(C)C[C@H](N)[C@](O)(Cc1nccc2c1CCC(CC1CC1)C2)C(=O)O` (stereo partly drawn): 7.82.
Turning to `COc1ccccc1CCc1ccnc(C[C@](O)(C(=O)O)[C@@H](N)CC(C)C)c1`, the pIC50 is 7.92.
Then `C=CCSC[C@H](N)[C@](O)(Cc1cc(CCCC2CC2)ccn1)C(=O)O`, with 7.70.
Next, `CCCCCc1ccnc(C[C@](O)(C(=O)O)[C@@H](N)CC(C)C)c1`: 7.96.

For the origin of these results see ChEMBL document CHEMBL5727139, “Pyridine derivatives” (2018).
